The text below walks through data of patent US10766902B2, “Wee-1 inhibiting pyrazolopyrimidinone compounds” (ALMAC DISCOVERY LIMITED, priority 2016, dated 2020).

Wee-1 kinase, sequence (P30291 whole entry): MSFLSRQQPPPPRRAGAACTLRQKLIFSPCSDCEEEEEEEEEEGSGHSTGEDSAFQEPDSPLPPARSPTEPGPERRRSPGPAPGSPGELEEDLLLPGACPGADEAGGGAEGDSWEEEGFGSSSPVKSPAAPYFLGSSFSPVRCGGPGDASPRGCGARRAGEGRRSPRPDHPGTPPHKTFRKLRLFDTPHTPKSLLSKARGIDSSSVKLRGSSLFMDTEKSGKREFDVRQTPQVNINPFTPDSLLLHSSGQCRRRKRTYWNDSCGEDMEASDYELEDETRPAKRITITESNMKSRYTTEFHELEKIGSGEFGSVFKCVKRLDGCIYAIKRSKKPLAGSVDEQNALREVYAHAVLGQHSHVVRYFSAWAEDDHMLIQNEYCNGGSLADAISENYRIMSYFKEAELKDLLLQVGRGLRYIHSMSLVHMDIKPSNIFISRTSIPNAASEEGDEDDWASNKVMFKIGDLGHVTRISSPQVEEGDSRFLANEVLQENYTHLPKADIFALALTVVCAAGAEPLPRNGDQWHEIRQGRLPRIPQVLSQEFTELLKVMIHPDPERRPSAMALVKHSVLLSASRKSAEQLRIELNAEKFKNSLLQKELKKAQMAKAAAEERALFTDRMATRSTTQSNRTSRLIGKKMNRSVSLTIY

The target of the experiment is Wee-1 kinase (Homo sapiens (Human), UniProt P30291). As to the kind of experiment: Measurement of Wee-1 kinase activity (ADP-Glo luminescence). It is filed as biochemical. To be noted: read-out: Wee1 IC50. As to the method:
Method 1: Measurement of Wee-1 Kinase Activity
In the measurement of Wee-1 activity, a commercial peptide Poly(Lys Tyr(4:1)) hydrobromide was purchased from Sigma Aldrich and used as the substrate. Activated Wee-1 kinase was purchased from Invitrogen (PV3817) and an ADP-Glo luminescent kit was purchased from Promega.
All reactions took place in […] volumes in reaction buffer containing 40 mM Tris-HCl and 20 mM magnesium chloride, supplemented with 0.1 mg/mL bovine serum albumin and 2 mM DTT. Compounds were serially diluted in buffer and 5 μL of each concentration pipetted into a white 384 well plate (Sigma Aldrich M6186). A 5 μL aliquot of the Wee-1 enzyme was added to each well and the plate centrifuged for 1 min to ensure mixing of the enzyme and inhibitor.
The plate was incubated at room temperature for 30 minutes before the addition of 2.0 μg/mL of substrate and 30 μM ATP in a 5 μL aliquot. The plate was centrifuged for one minute and incubated for 1 h at RT.
15 μL of ADP-Glo stop reagent was added to each well to quench the reaction and deplete unconverted ATP. The plate was incubated for a further 40 min in the dark at RT.
30 μL of ADP-Glo kinase detection reagent was added to each well, converting ADP to ATP, catalysing the generation of luciferin by luciferase. The plate was shaken for 1 min, and incubated in the dark for an additional hour.
Luminescence from each well was detected using the Biotek Synergy4 HD plate reader and the percentage inhibition of kinase activity calculated for each inhibitor tested. Positive (kinase only) and negative (no kinase) controls were added to each plate to ensure specific interaction of kinase and inhibitor. The IC50 concentration for each inhibitor was calculated by plotting the percentage kinase inhibition against concentration of inhibitor and the curve generated by non-linear regression fitting.
A general note: In ADP-Glo the light output rises with the ADP produced.
For the compound `C=CCn1c(=O)c2cnc(Nc3ccc(N4CCOCC4)cc3)nc2n1-c1cncc(N=S(C)(C)=O)n1` [Example 51, 1-(6-{[Dimethyl(oxo)-λ^6-sulfanylidene]amino}pyrazin-2-yl)-6-{[4-(morpholin-4-yl)phenyl]amino}-2-(prop-2-en-1-yl)-1H,2H,3H-pyrazolo[3,4-d]pyrimidin-3-one], the IC50 came out at 0.6 nM.

Take `CCCn1c(=O)c2cnc(Nc3ccc(N4CCOCC4)cc3)nc2n1-c1cccc(N=S(C)(C)=O)n1` [Example 38, 1-(6-{[Dimethyl(oxo)-λ^6-sulfanylidene]amino}pyridin-2-yl)-6-{[4-(morpholin-4-yl)phenyl]amino}-2-propyl-1H,2H,3H-pyrazolo[3,4-d]pyrimidin-3-one]: the IC50 was found to be 0.8 nM. In the case of `C=CCn1c(=O)c2cnc(Nc3ccc(N4CCN(C)CC4)c(CO)c3)nc2n1-c1cccc(N=S(C)(C)=O)c1` [Example 30, 1-(3-{[Dimethyl(oxo)-λ^6-sulfanylidene]amino}phenyl)-6-{[3-(hydroxymethyl)-4-(4-methylpiperazin-1-yl)phenyl]amino}-2-(prop-2-en-1-yl)-1H,2H,3H-pyrazolo[3,4-d]pyrimidin-3-one] it was 0.5 nM; in that of `CC(C)n1c(=O)c2cnc(Nc3ccc(N(C)C)cc3)nc2n1-c1cccc(N=S(C)(C)=O)n1` [Example 58, 1-(6-{[Dimethyl(oxo)-λ^6-sulfanylidene]amino}pyridin-2-yl)-6-{[4-(dimethylamino)phenyl]amino}-2-(propan-2-yl)-1H,2H, 3H-pyrazolo[3,4-d]pyrimidin-3-one], 0.4 nM. In the case of `C=CCn1c(=O)c2cnc(Nc3ccc(N4CC5CCC(C4)O5)cc3)nc2n1-c1cccc(N=S(C)(C)=O)n1` [Example 36, 1-(6-{[Dimethyl(oxo)-λ^6-sulfanylidene]amino}pyridin-2-yl)-6-{[4-(8-oxa-3-azabicyclo[3.2.1]octan-3-yl)phenyl]amino}-2-(prop-2-en-1-yl)-1H,2H,3H-pyrazolo[3,4-d]pyrimidin-3-one] it was 0.1 nM. Turning to `C=CCn1c(=O)c2cnc(Nc3ccc(F)cc3)nc2n1-c1cncc(N=S(C)(C)=O)n1` [Example 75, 1-(6-{[Dimethyl(oxo)-λ^6-sulfanylidene]amino}pyrazin-2-yl)-6-[(4-fluorophenyl)amino]-2-(prop-2-en-1-yl)-1H,2H,3H-pyrazolo[3,4-d]pyrimidin-3-one], the IC50 was 1.4 nM. The value for `CS(C)(=O)=Nc1cccc(-n2c3nc(Nc4ccc(N5CCOCC5)cc4)ncc3c(=O)n2CC2CC2)n1` [Example 92, 2-(Cyclopropylmethyl)-1-(6-{[dimethyl(oxo)-λ^6-sulfanylidene]amino}pyridin-2-yl)-6-{[4-(morpholin-4-yl)phenyl]amino}-1H,2H,3H-pyrazolo[3,4-d]pyrimidin-3-one] was 8.8 nM. In the case of `C=CCn1c(=O)c2cnc(Nc3ccc(N4CCN[C@H](C)C4)cc3)nc2n1-c1cccc(N=S(C)(C)=O)n1` [Example 9, 1-(6-{[Dimethyl(oxo)-λ^6-sulfanylidene]amino}pyridine-2-yl)-6-({4-[(3R)-3-methylpiperazin-1-yl]phenyl}amino)-2-(prop-2-en-1-yl)-1H,2H,3H-pyrazolo[3,4-d]pyrimidin-3-one] it was 1.5 nM; in that of `CC(C)n1c(=O)c2cnc(NC3CCC3)nc2n1-c1cccc(N=S(C)(C)=O)n1` [Example 47, 6-(Cyclobutylamino)-1-(6-{[dimethyl(oxo)-λ^6-sulfanylidene]amino}pyridin-2-yl)-2-(propan-2-yl)-1H,2H,3H-pyrazolo[3,4-d]pyrimidin-3-one], 67 nM; in that of `C=CCn1c(=O)c2cnc(Nc3ccc(C4CCN(C5CCC5)CC4)c(C)c3)nc2n1-c1cccc(N=S(C)(C)=O)n1` [Example 88, 6-{[4-(1-Cyclobutylpiperidin-4-yl)-3-methylphenyl]amino}-1-(6-{[dimethyl(oxo)-λ^6-sulfanylidene]amino}pyridin-2-yl)-2-(prop-2-en-1-yl)-1H,2H,3H-pyrazolo[3,4-d]pyrimidin-3-one], 0.4 nM.

Consider `CC(C)n1c(=O)c2cnc(Nc3cnn(C)c3)nc2n1-c1cccc(N=S2(=O)CCCC2)n1` [Example 56, 6-[(1-Methyl-1H-pyrazol-4-yl)amino]-1-{6-[(1-oxo-1λ^6-thiolan-1-ylidene)amino]pyridin-2-yl}-2-(propan-2-yl)-1H,2H,3H-pyrazolo[3,4-d]pyrimidin-3-one], for which the IC50 is 18.5 nM. As to `COC[C@@H]1CN(c2ccc(Nc3ncc4c(=O)n(C(C)C)n(-c5cccc(N=S(C)(C)=O)n5)c4n3)cc2)CCO1` [Example 53, 1-(6-{[Dimethyl(oxo)-λ^6-sulfanylidene]amino}pyridin-2-yl)-6-({4-[(2S)-2-(methoxymethyl)morpholin-4-yl]phenyl}amino)-2-(propan-2-yl)-1H,2H,3H-pyrazolo[3,4-d]pyrimidin-3-one], the IC50 came to 0.5 nM. In the case of `C=CCn1c(=O)c2cnc(Nc3ccc(N4CCOCC4)cc3)nc2n1-c1cccc(CN=S(C)(C)=O)n1` [Example 91, 1-[6-({[Dimethyl(oxo)-λ^6-sulfanylidene]amino}methyl)pyridin-2-yl]-6-{[4-(morpholin-4-yl)phenyl]amino}-2-(prop-2-en-1-yl)-1H,2H,3H-pyrazolo[3,4-d]pyrimidin-3-one], the IC50 amounted to 22.1 nM. With `C=CCn1c(=O)c2cnc(Nc3ccc(N4CCNCC4)cc3)nc2n1-c1cccc(N=S(C)(C)=O)n1` [Example 6, 1-(6-{[Dimethyl(oxo)-λ^6-sulfanylidene]amino}pyridine-2-yl)-6-{[4-(piperazin-1-yl)phenyl]amino}-2-(prop-2-en-1-yl)-1H,2H,3H-pyrazolo[3,4-d]pyrimidin-3-one], the half-maximal inhibitory concentration (IC50) turned out to be 1.8 nM. Consider `C=CCn1c(=O)c2cnc(Nc3ccc(OCCNC)cc3)nc2n1-c1cccc(N=S(C)(C)=O)c1` [Example 27, 1-(3-{[Dimethyl(oxo)-λ^6-sulfanylidene]amino}phenyl)-6-({4-[2-(methylamino)ethoxy]phenyl}amino)-2-(prop-2-en-1-yl)-1H,2H,3H-pyrazolo[3,4-d]pyrimidin-3-one], for which the IC50 is 1.7 nM. The value for `CC(C)n1c(=O)c2cnc(Nc3ccc(N4CCOCC4)cc3)nc2n1-c1cccc(N=S(C)(C)=O)n1` [Example 43, 1-(6-{[Dimethyl(oxo)-λ^6-sulfanylidene]amino}pyridin-2-yl)-6-{[4-(morpholin-4-yl)phenyl]amino}-2-(propan-2-yl)-1H,2H,3H-pyrazolo[3,4-d]pyrimidin-3-one] was 0.4 nM. In the case of `C=CCn1c(=O)c2cnc(NC34CC(C3)C4)nc2n1-c1cccc(N=S(C)(C)=O)n1` [Example 63, 6-({Bicyclo[1.1.1]pentan-1-yl}amino)-1-(6-{[dimethyl(oxo)-λ^6-sulfanylidene]amino}pyridin-2-yl)-2-(prop-2-en-1-yl)-1H,2H,3H-pyrazolo[3,4-d]pyrimidin-3-one] it was 1000 nM. In the case of `CC(C)n1c(=O)c2cnc(Nc3ccc(C#N)cc3)nc2n1-c1cccc(N=S(C)(C)=O)n1` [Example 71, 4-{[1-(6-{[Dimethyl(oxo)-λ^6-sulfanylidene]amino}pyridin-2-yl)-3-oxo-2-(propan-2-yl)-1H,2H,3H-pyrazolo[3,4-d]pyrimidin-6-yl]amino}benzonitrile] it was 26 nM. On to `CCCn1c(=O)c2cnc(Nc3ccc(N4CCN(C)CC4)cc3)nc2n1-c1cccc(N=S(C)(C)=O)n1` [Example 11, 1-(6-{[Dimethyl(oxo)-λ^6-sulfanylidene]amino}pyridine-2-yl)-6-{[4-(4-methylpiperazin-1-yl)phenyl]amino}-2-propyl-1H,2H,3H-pyrazolo[3,4-d]pyrimidin-3-one], for which the IC50 stood at 1.2 nM.

Usually IC50 stands for the point on the concentration scale where inhibition reaches its midpoint.
